Assay results as given in PubChem BioAssay (NCI).
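Briefly, cells in 96-well plates were exposed to five compound concentrations for 48 h, and endpoints were estimated by linear interpolation. Abbreviation: GI50, concentration required for 50% inhibition of growth. TGI marks complete inhibition of growth.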

Experiments:
Test in all cases: NCI anticancer screen, dose series, 48 h
[1] = tested on: 786-0 renal
[2] = tested on: EKVX NSCLC
[3] = tested on: HCC-2998 colon
[4] = tested on: K-562 leukemia
[5] = tested on: LOX IMVI melanoma
[6] = tested on: M14 melanoma
[7] = tested on: NCI-H460 lung
[8] = tested on: NCI-H522 lung
[9] = tested on: SF-268 CNS
[10] = tested on: DLD-1 colon
[11] = tested on: HOP-18 NSCLC
[12] = tested on: KM20L2 colon

Structure (SMILES)	TGI [1] [µM]	TGI [2] [µM]	TGI [3] [µM]	TGI [4] [µM]	TGI [5] [µM]	TGI [6] [µM]	TGI [7] [µM]	TGI [8] [µM]	TGI [9] [µM]	GI50 [3] [µM]	GI50 [4] [µM]	GI50 [7] [µM]	GI50 [8] [µM]	GI50 [9] [µM]	GI50 [2] [µM]	TGI [10] [µM]	TGI [11] [µM]	TGI [12] [µM]	GI50 [5] [µM]	GI50 [6] [µM]
Cc1ccc(S(=O)(=O)Nc2cc(=O)[nH]c3c2CCC3)cc1	> 100	> 100	> 100	> 100	> 100	> 100	> 100	> 100	> 100											
CCOC(=O)/C=C/C1=C(Br)[C@@]2(C)CC[C@@H]3c4ccc(O)cc4CC[C@H]3[C@@H]2C1	25.4	30.7	28.8	24.9	19.6	23.9	28.4	14.2	33											
CS(=O)(=O)Nc1cccc(-c2ccc3ncnc(Nc4cncc(Cl)c4)c3c2)c1			5.27	> 100			> 100	4.93	> 100	2.4	2.59	3.18	1.75	2.26						
C#C[C@]1(O)[C@@H](CO)O[C@@H](n2ccc(=O)[nH]c2=O)[C@@H]1O		> 100		> 100	1.57	6.77	> 100	1.64												
CN(CCN1C(=O)c2cccc3cccc(c23)C1=O)CCN1C(=O)c2cccc3cccc(c23)C1=O	27.5	> 100		> 100	> 100	> 100	> 100	40.6	> 100											
NC(N)=N/N=C/c1c(-c2cccs2)nc2n1CCS2		85.7		71.8			40.6	> 100	53.3		27.9	18.7	38.2	25.5	27.7					
Oc1ccc(Cl)cc1C1=Nn2c(COc3ccc4c(c3)CCCC4)nnc2SC1		34.7		49.4	29.3	29.5	30.9	21.6	35											
c1ccc(C[N+]23C(CC[C@H]2c2ccccc2)CC[C@H]3c2ccccc2)cc1 (stereo not given in full)	> 100	> 100		> 100	> 100	93		> 100	> 100											
OC1CCSc2ccccc21 (stereo not given)		> 100	> 100	> 100	> 100	> 100	> 100	> 100	> 100							> 100	> 100	> 100		
Nc1csc(-c2scc3c2OCCO3)c1N	33.3	72.3	49.8	87.4	30.9	35.2	73.7	33.8	47.5											
Cc1cc(=O)[nH]c(S(=O)(=O)NC(=O)Nc2cccc(Cl)c2)n1	> 100	> 100	> 100	> 100	> 100	> 100	> 100	> 100	> 100											
CC1(C)CC(C(=O)OCCCCCCCCCCC[P+](c2ccccc2)(c2ccccc2)c2ccccc2)C(C)(C)N1O (stereo not given)			1.52	0.784	1.05	1.08			1.54	0.324	0.0852			0.394					0.207	0.302
CCOC(=O)c1cccc(N=Nc2ncc(/C=C/C(=O)OC)[nH]2)c1	> 100	> 100	43.8	> 100	51	76	34.5	47.2	> 100											
CC(C)(C)COS(=O)OCC(C)(C)C	> 100	> 100	> 100	> 100	> 100	> 100	> 100	> 100	> 100											
Fc1c(F)c(F)c(CSc2nc3ccccc3[nH]2)c(F)c1F		> 100	> 100	> 100	> 100	> 100	> 100	> 100	> 100											
CC12OC(C(=O)C13CCC3)C1C(=O)c3c(O)ccc(O)c3C(=O)C12 (stereo not given)		22.7		10.3	> 100	2.04	29.3	10.2	26.3		1.27	7.46	2.95	7.96	9.34				2.33	0.669

Structure (SMILES)	TGI [1] [µM]	TGI [2] [µM]	TGI [3] [µM]	TGI [4] [µM]	TGI [5] [µM]	TGI [6] [µM]	TGI [7] [µM]	TGI [8] [µM]	TGI [9] [µM]	GI50 [3] [µM]	GI50 [4] [µM]	GI50 [7] [µM]	GI50 [8] [µM]	GI50 [9] [µM]	GI50 [2] [µM]	TGI [10] [µM]	TGI [11] [µM]	TGI [12] [µM]	GI50 [5] [µM]	GI50 [6] [µM]
O=C(NN1CCCCC1)c1cc2cc(CCl)ccc2oc1=O	32	27.4	27.1	48.1	35.9	49.4	31.1	22.7	32.9											
CN(C)c1ccc(/C=C2\C[C@H]3[C@@H]4CC=C5C[C@@H](O)CC[C@]5(C)[C@H]4CC[C@]3(C)[C@H]2O)cc1	42	23.8		> 100	27.1	41.3	28.9		34.8											
Cc1ccc([N+](=O)[O-])cc1S(=O)(=O)Nc1ccc(C2=NN(C(=O)c3ccccc3)C(c3ccccc3O)C2)cc1 (stereo not given)	27.9	31		> 100	45.6	48.6		28.6	45.9											
C/C=C/C(O)P(=O)(OC)OC (stereo not given)	0.36	1.51	0.774	2.63	0.392	0.463	0.93	0.664	0.914											
Clc1cccc(/C=c2\nc(-c3ccccc3)n3c2nc2ccccc23)c1	> 100	> 100		> 100	> 100	> 100	> 100		> 100											
COc1cc2cc[n+](C)c(Cc3ccc(Oc4cc(Cc5c6cc(OC)c(OC)cc6cc[n+]5C)ccc4OC)cc3)c2cc1OC	> 100	> 100	> 100	> 100	> 100	> 100	> 100	> 100	> 100											
Nc1ccc(Cc2ccc(N)c(C(=O)O)c2)cc1C(=O)O	> 100	> 100	> 100	> 100	> 100	> 100	> 100	> 100	> 100											
C=C(CN(C)C)C(=O)c1ccccc1Cl	34.3	> 76.6	61	> 75.4	33.4	33.3	> 100	15.6	42.7							36.3	33.7	> 60.4		
O=S(C(c1ccccc1)=P(c1ccccc1)(c1ccccc1)c1ccccc1)c1ccc(Cl)cc1 (stereo not given)	> 100	> 100	> 100	> 100	> 100	> 100	> 100	38.6	87.9											
COc1ccc(-n2nc(C(=O)c3ccccc3)c3nn4c(=O)cc(-c5ccccc5)nc4nc32)cc1		> 100	76.7	> 100	> 100	> 100	> 100	81.2	> 100	47.3	40.5	32.4	23.1	39.1	53.5				34.5	30.3
CN(CCCNC(=O)c1nn(-c2ccccc2)c2c1Cc1ccccc1-2)CCCNC(=O)c1nn(-c2ccccc2)c2c1Cc1ccccc1-2	2.9		2.77	2.17		2.61	3.26	2.63	3.31											
CN(CCc1ccccn1)c1ccc2c(c1)Cc1ccccc1-2	> 100	62	> 100	> 100	> 100	94.3	> 100	62.1	> 100											
O=C1CNc2cc(N3CCCCC3)ccc2N1		50.9	> 100	> 100		> 100	> 100	> 100												
Cc1c2ccccc2cc2cccc[n+]12	> 100	92.5	> 100	> 100	> 100		> 100	37.4	40.4											
CC(CCCCNC(=O)OC(C)(C)C)NC(=O)NC(C)CCCCNC(=O)OC(C)(C)C (stereo not given)	> 100	> 100		> 100	> 100	> 100	> 100	> 100	> 100											
CS(=O)(=O)Nc1ccc(NCc2cnc3ccc4[nH]cccc4c23)cc1	> 100	> 100		53.7	> 100	46.4	> 100	42.3	61.8											
